These are literature values, as cited in patent US10507205B2, “Methods of treating opiate dependency and preventing non-oral opiate abuse among opiate addicts” (PURDUE PHARMACEUTICAL PRODUCTS L.P., priority 2006, dated 2019).

The conditions of this series: pronounced first-pass metabolism, 'sometimes less than 5%'.

For `C=CCN1CCC23c4c5ccc(O)c4OC2C(=O)CCC3(O)C1C5` (stereo not shown) [naloxone, Naloxone], the “bioavailability of orally administered naloxone” value was “less than 5%”.
